Assay [1] relates to Mus musculus. Briefly: Evaluated for improvement of anoxic amnesia in mice after ip administration of 50 mg/kg dose. It counts as functional. As to conditions: route intraperitoneal.
For assay [2], the system named is Mus musculus. Briefly: The compound was evaluated for hypoxic survival activity in mice after intraperitoneal administration at 100 mg/kg dose; 45-65. As to conditions: ip. The assay is classed as functional.
Assay [3] has as its system Mus musculus. Briefly: The compound was evaluated for hypoxic survival activity in mice after intraperitoneal administration at 100 mg/kg dose. It counts as functional. The following applies: ip.
For assay [4], the system named is Mus musculus. Nature of the assay: The compound was evaluated for hypoxic survival activity in mice after intraperitoneal administration at 100 mg/kg dose; 75-80. The following applies: ip. The assay is classed as functional.
The subject of assay [5] is Rattus norvegicus. Nature of the assay: Evaluated for improvement of anoxic amnesia in aged rat after ip administration of 10 mg/kg dose(529 delay seconds). It counts as functional. As to conditions: route intraperitoneal.
Assay [6] has as its system Mus musculus. Briefly: Evaluated for improvement of anoxic amnesia in mice after ip administration of 25 mg/kg dose(341 delay seconds); 79-131. The following applies: route intraperitoneal. The assay is classed as functional.
Assay [7] concerns Rattus norvegicus. Briefly: Evaluated for improvement of anoxic amnesia in aged rat after ip administration of 25 mg/kg (300 delay seconds). The following applies: route intraperitoneal. It counts as functional.
Assay [8] relates to Mus musculus. Nature of the assay: Evaluated for improvement of anoxic amnesia in mice after ip administration of 10 mg/kg dose(218 delay seconds); -19-248. The assay is classed as functional. As to conditions: route intraperitoneal.
In assay [9] the test system is Mus musculus. Nature of the assay: Evaluated for improvement of anoxic amnesia in mice after ip administration of 100 mg/kg dose. The following applies: route intraperitoneal. It counts as functional.
The subject of assay [10] is Mus musculus. Briefly: The compound was evaluated for hypoxic survival activity in mice after intraperitoneal administration at 100 mg/kg dose; 50-95. It counts as functional. As to conditions: ip.
Assay [11] has as its system Mus musculus. Nature of the assay: The compound was evaluated for hypoxic survival activity in mice after intraperitoneal administration at 100 mg/kg dose; 80-85. The following applies: ip. It counts as functional.
Assay [12] has as its system Mus musculus. Nature of the assay: The compound was evaluated for hypoxic survival activity in mice after intraperitoneal administration at 100 mg/kg dose; 50-90. The following applies: ip. The assay is classed as functional.
In assay [13] the test system is Mus musculus. Briefly: The compound was evaluated for hypoxic survival activity in mice after intraperitoneal administration at 0.125 mg/kg dose; 60-80. The assay is classed as functional. As to conditions: ip.
Assay [14] concerns Mus musculus. Briefly: The compound was evaluated for hypoxic survival activity in mice after intraperitoneal administration at 10 mg/kg dose; 30-80. It counts as functional. As to conditions: ip.
Assay [15] deals with Mus musculus. Briefly: The compound was evaluated for hypoxic survival activity in mice after intraperitoneal administration at 100 mg/kg dose; 55-55. It counts as functional. The following applies: ip.
Assay [16] relates to Mus musculus. Nature of the assay: The compound was evaluated for hypoxic survival activity in mice after intraperitoneal administration at 10-100 mg/kg dose; Inactive. The assay is classed as functional, organism-based.
Assay [17] deals with Mus musculus. Briefly: The compound was evaluated for hypoxic survival activity in mice after intraperitoneal administration at 100 mg/kg dose; 65-80. It counts as functional. The following applies: ip.
Assay [18] relates to Mus musculus. Briefly: The compound was evaluated for hypoxic survival activity in mice after intraperitoneal administration at 10 mg/kg dose; 50-75. It counts as functional. As to conditions: ip.
Assay [19] deals with Mus musculus. Nature of the assay: The compound was evaluated for hypoxic survival activity in mice after intraperitoneal administration at 50 mg/kg dose; 80-90. The assay is classed as functional. As to conditions: ip.

Molecules are shown by their SMILES. Active and inactive are the calls of the source. The rule behind the calls is not given here.

Drawing on ChEMBL document CHEMBL1126410, “Synthesis and activity in cognition-related tests of novel 2-benzoylamino-4-oxoquinazolines” (1992), this text covers Improvement, survival and Survival for 14 compounds.

In the case of `Cc1ccc(C(=O)Nc2nc(=O)c3ccccc3n2C)cc1`, the Improvement in the assay on Mus musculus [1] is given as 224%. The compound further showed a survival at 100 mg/kg with Mus musculus [2] of 55%.

The compound `CC(C)n1c(NC(=O)c2ccccc2)nc2ccccc2c1=O` yielded a survival at 100 mg/kg in the assay with Mus musculus [3] of 55%.

With `Cn1c(NC(=O)c2ccccc2)nc2ccccc2c1=O`, the survival at 100 mg/kg in the assay with Mus musculus [4] is 78%. Besides, the Improvement in the assay with Rattus norvegicus [5] stood at 1369%; in the assay with Mus musculus [6], 105%; with Rattus norvegicus [7], 733%; in the assay with Mus musculus [8], 94%; in the assay on Mus musculus [9] it was 78%.

In the assay with Mus musculus [10], `Cn1c(NC(=O)c2ccccc2)nc(=O)c2ccccc21` gave a survival at 100 mg/kg of 70%.

As for `Cc1cccc(C(=O)Nc2nc(O)c3ccccc3n2)c1`, the survival at 100 mg/kg with Mus musculus [11] was determined as 83%.

The compound `COc1cc2nc(NC(=O)c3ccccc3)nc(O)c2cc1OC` showed a survival at 100 mg/kg in the assay on Mus musculus [12] of 70%.

`CNC(=O)Oc1ccc2c(c1)[C@]1(C)CCN(C)[C@@H]1N2C` [PHYSOSTIGMINE] displayed a survival at 0.125 mg/kg in the assay on Mus musculus [13] of 60%.

As for `O=C(Nc1nc(O)c2ccccc2n1)c1ccc(Cl)cc1`, the survival at 10 mg/kg with Mus musculus [14] is 55%.

The compound `Cc1ccc2nc(NC(=O)c3ccccc3)nc(O)c2c1` yielded a survival at 100 mg/kg in the assay with Mus musculus [15] of 55%.

As to `Cc1cccc(C(=O)Nc2nc(=O)c3ccccc3n2C)c1`, in the assay on Mus musculus [16], the Survival result is “inactive”.

On to `O=C(Nc1nc(O)c2ccccc2n1)c1ccccc1`, for which the Improvement in the assay with Mus musculus [1] came to 130%. The same compound had a survival at 100 mg/kg in the assay on Mus musculus [17] of 73%.

In the assay with Mus musculus [18], `Cc1ccc(C(=O)Nc2nc(O)c3ccccc3n2)cc1` had a survival at 10 mg/kg of 63%.

Compound `Cc1ccc(C(=O)Nc2nc3ccccc3c(=O)n2C)cc1` registered a survival at 50 mg/kg in the assay on Mus musculus [19] of 85%. Besides, in the assay on Mus musculus [1], the Improvement is on record as 116%.

In the assay on Mus musculus [18], `COc1ccc(C(=O)Nc2nc(O)c3ccccc3n2)cc1` returned a survival at 10 mg/kg of 63%.
